According to ChEMBL document CHEMBL4619731, “Identification of a new class of non-electrophilic TRPA1 agonists by a structure-based virtual screening approach” (Bioorg Med Chem Lett, 2020):

Target: Transient receptor potential cation channel subfamily A member 1 (Homo sapiens) (UniProt O75762)
Test: Agonist activity at TRPA1 (unknown origin) at 1000 uM relative to AITC

Transient receptor potential cation channel subfamily A member 1 (Homo sapiens), sequence (O75762 whole entry): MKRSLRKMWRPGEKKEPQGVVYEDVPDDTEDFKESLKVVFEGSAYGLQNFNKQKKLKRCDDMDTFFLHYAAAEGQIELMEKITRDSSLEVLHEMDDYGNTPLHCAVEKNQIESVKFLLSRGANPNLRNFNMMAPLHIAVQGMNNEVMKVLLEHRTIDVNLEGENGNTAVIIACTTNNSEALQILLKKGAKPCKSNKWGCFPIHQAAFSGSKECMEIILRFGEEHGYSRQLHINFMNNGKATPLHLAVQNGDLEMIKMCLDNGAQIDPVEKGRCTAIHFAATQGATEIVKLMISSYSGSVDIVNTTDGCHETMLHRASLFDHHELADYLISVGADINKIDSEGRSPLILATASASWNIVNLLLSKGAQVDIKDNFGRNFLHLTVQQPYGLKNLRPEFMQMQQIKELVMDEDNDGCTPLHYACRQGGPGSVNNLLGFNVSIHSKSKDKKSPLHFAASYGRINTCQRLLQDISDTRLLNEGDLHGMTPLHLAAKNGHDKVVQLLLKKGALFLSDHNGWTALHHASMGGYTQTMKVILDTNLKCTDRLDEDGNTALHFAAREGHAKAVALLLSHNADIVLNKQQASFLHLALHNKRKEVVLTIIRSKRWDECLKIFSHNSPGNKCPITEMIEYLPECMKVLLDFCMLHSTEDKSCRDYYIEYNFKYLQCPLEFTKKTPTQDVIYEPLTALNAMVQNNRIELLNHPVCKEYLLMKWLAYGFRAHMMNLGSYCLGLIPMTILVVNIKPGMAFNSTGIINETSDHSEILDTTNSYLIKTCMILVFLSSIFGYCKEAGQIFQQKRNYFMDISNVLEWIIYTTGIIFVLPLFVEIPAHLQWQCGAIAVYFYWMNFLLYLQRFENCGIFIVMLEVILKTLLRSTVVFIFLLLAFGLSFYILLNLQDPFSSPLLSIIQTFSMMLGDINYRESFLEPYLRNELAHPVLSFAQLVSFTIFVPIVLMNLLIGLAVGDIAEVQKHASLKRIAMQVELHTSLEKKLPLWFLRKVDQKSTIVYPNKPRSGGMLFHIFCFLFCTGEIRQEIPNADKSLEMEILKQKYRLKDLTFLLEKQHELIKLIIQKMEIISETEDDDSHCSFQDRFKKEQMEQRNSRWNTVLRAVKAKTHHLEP

Row | SMILES | Activity [%]
1 | COc1cc(C2OCC3C(c4cc(OC)c(O)c(OC)c4)OCC23)cc(OC)c1O (centres undefined) | 26
2 | CCCCCCCCCCCC(=O)OCC | 15
3 | CCCCCCCCC(C)=O | 11
4 | CCCCC(CC)CO (centres undefined) | 60
5 | CCCCCCCCCCCO | 20
6 | CCCCCCCCCCC(C)=O | 13
7 | CCCCCCCC(=O)OCCC(C)C | 12
8 | CC(=O)OCC(COC(C)=O)OC(C)=O | 17
9 | C[C@@H]1O[C@@H](O[C@H]2[C@H](Oc3cc(O)c4c(c3)O[C@H](c3ccc(O)cc3)CC4=O)O[C@H](CO)[C@@H](O)[C@@H]2O)[C@H](O)[C@H](O)[C@H]1O | 20
10 | O=c1c(O[C@@H]2O[C@@H](CO)[C@H](O)[C@H]2O)c(-c2ccc(O)c(O)c2)oc2cc(O)cc(O)c12 | 41
11 | CCCCCC(=O)OCCC(C)C | 16
12 | O=c1cc(-c2ccc(O)cc2)oc2c([C@@H]3O[C@H](CO)[C@@H](O)[C@H](O)[C@H]3O)c(O)cc(O)c12 | 15
13 | CCCCCCCCCCCCCCCC(=O)OC | 17
14 | CCCCCCCCCC(C)O (centres undefined) | 16
15 | CCCCCCCCCCCCO | 12
16 | CCCC(=O)OCC(C)C | 19
17 | CC(C)C(=O)OCCc1ccccc1 | 37
18 | CCCCCCCC(=O)OC | 33
19 | CCCCCCCCOC(=O)CCC | 13
20 | CCCCCCCCCC(=O)OCCC(C)C | 13
21 | CCCCCCCCCCO | 71
22 | O=c1cc(-c2ccc(O)cc2)oc2cc(O[C@@H]3O[C@H](CO)[C@@H](O)[C@H](O)[C@H]3O)c([C@@H]3O[C@H](CO)[C@@H](O)[C@H](O)[C@H]3O)c(O)c12 | 20
23 | CCOC(=O)CC(O)(CC(=O)OCC)C(=O)OCC | 18
24 | CCCC(=O)OCCc1ccccc1 | 62
25 | CCCCCCCCC(=O)OC | 39

Row | SMILES | Activity [%]
26 | CC(O)CO (centres undefined) | 12
27 | CCCCCCCCC(=O)OCC | 12
28 | Oc1cc(O)c2c(c1)O[C@H](c1ccc(O)c(O)c1)[C@H](O)[C@H]2c1c(O)cc(O)c2c1O[C@H](c1ccc(O)c(O)c1)[C@H](O)C2 | 22
29 | CCCCCCCCCCCCCC(=O)O | 23
30 | CCCCCCCC1CCC(=O)O1 (centres undefined) | 27
31 | OC[C@H]1O[C@H](O[C@H]2[C@H](O)[C@@H](O)[C@@H](O[C@H]3[C@H](O)[C@@H](O)C(O)O[C@@H]3CO)O[C@@H]2CO)[C@H](O)[C@@H](O)[C@@H]1O (some centres undefined) | 14
32 | CCCCCCCCCC(=O)OC | 14
33 | CCCCCCCOC(C)=O | 8
34 | CCCCCCCCOC(C)=O | 8
35 | CCCCCCCCCC(=O)OCC | 16
36 | CCOC(=O)c1ccco1 | 12
37 | C/C=C/C(=O)C1=C(C)C=CCC1(C)C | 13
38 | CCCCCCCC(=O)OCC | 9
39 | CCCCCCCCCCCCCC(C)=O | 10
40 | CCCCCCCCCCCCCC(=O)OCC | 17
41 | CCCCCCCCCCCC(C)=O | 13
42 | CCCCCCCC(=O)CC | 15
43 | O=c1ccn([C@@H]2O[C@H](CO)[C@@H](O)[C@H]2O)c(=O)[nH]1 | 11
44 | CCCCC(CC)COC(=O)c1ccccc1O (centres undefined) | 14
45 | CC(=O)OC(C)C | 10
46 | CCCCCC(=O)OCC(C)C | 23
47 | CCCCCCCC1CCCC(=O)O1 (centres undefined) | 20
48 | CCCCCCCCCC(C)=O | 15
49 | O=C(O[C@H]1Cc2c(O)cc(O)cc2O[C@@H]1c1ccc(O)c(O)c1)c1cc(O)c(O)c(O)c1 | 15
